Assay results taken from PubChem BioAssay (NCI).
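Interpolation was linear, between the two tested concentrations surrounding the appropriate level; five concentrations were tested over 48 hours in 96-well plates. TGI denotes the concentration required for complete inhibition of growth.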

Assays:
Assay in all cases: NCI-60 cell line screen, 48 h
SNB-75 CNS = tested on: SNB-75 CNS
SNB-19 CNS = tested on: SNB-19 CNS
UO-31 renal = tested on: UO-31 renal
HCC-2998 colon = tested on: HCC-2998 colon
NCI-H460 lung = tested on: NCI-H460 lung
SK-MEL-28 melanoma = tested on: SK-MEL-28 melanoma
OVCAR-3 ovarian = tested on: OVCAR-3 ovarian
CCRF-CEM leukemia = tested on: CCRF-CEM leukemia
HS 578T breast = tested on: HS 578T breast
786-0 renal = tested on: 786-0 renal

SMILES | TGI (SNB-75 CNS) [µM] | TGI (SNB-19 CNS) [µM] | TGI (UO-31 renal) [µM] | TGI (HCC-2998 colon) [µM] | TGI (NCI-H460 lung) [µM] | TGI (SK-MEL-28 melanoma) [µM] | TGI (OVCAR-3 ovarian) [µM] | TGI (CCRF-CEM leukemia) [µM] | TGI (HS 578T breast) [µM] | TGI (786-0 renal) [µM]
COc1cc(C2c3cc4c(cc3OC(N3CCOCC3)C2C)OCO4)cc(OC)c1OC (stereo not drawn) | > 48.2 | 18.7 | 55.2 | 4.35 | 10.2 | > 100 | > 23 | > 100 | 0.722 | 28.6
S=C1NC2=C(COC/C2=C\c2ccccc2Cl)C(c2ccccc2Cl)N1 (stereo not drawn) | > 100 | > 100 | > 100 | 89 | > 100 |  | > 100 | 45.1 | > 100 | > 100
COc1cc(C(c2cc(OC)c(OC)c(OC)c2)N2C(=O)CCC2C(=O)O)cc(OC)c1OC (stereo not drawn) | > 100 | > 100 | > 100 |  | > 100 | > 100 | > 100 | > 100 | > 100 | > 100
Cc1ccc(N2C(=O)C(O)=C(C(=O)C(C)(C)C)C2c2ccc([N+](=O)[O-])cc2)cc1 (stereo not drawn) |  | > 100 | 89.3 | 45.4 | 30.5 | 63.6 | 93.5 | > 100 | 45.3 | 39.9
COc1ccc(-c2cc(-c3ccc(Nc4ccnc5cc(C(F)(F)F)ccc45)cc3)[nH]c(=O)c2C#N)cc1 | 62.2 | 56.7 |  | > 100 | > 100 | > 100 | > 100 | > 100 | 49.6 | > 100
C[N+](C)(N)Cc1csc(-c2ccc(Cl)cc2)n1 | > 100 | > 100 | > 100 | > 100 | > 100 | > 100 | > 100 |  | > 100 | > 100
O=c1[nH]c2cc([N+](=O)[O-])c(N(CCO)CCO)c([N+](=O)[O-])c2[nH]1 | 89.4 | > 100 | > 100 |  | 43.2 | 91.8 | 33.3 | > 100 | > 100 | > 100
O=S(=O)(Nc1nc(-c2cc(O)c(O)c(O)c2)cs1)c1ccc(Cl)cc1Cl | 77.6 | > 100 | 46.5 |  | 38.6 | > 100 | 37.6 | 41.5 | 53.6 | 46.2
Cc1ccc(-c2nc3n(c2/C=N\N=C(N)N)CCS3)cc1 | 23.2 | 28.5 | 30.5 | 24.2 | 32 | 29.4 |  | 55.9 | 41.4 | 29.3
C[n+]1c(-c2ccc(/C=N/Nc3n[nH]c(=S)n3N/N=C/c3ccc(-c4cn5ccccc5[n+]4C)cc3)cc2)cn2ccccc21 | > 100 | > 100 | > 100 | > 100 | > 100 | > 100 |  | > 100 | > 100 | > 100
CNC(=O)C(NC(=O)[C@H](CC(C)C)NC(=O)[C@@H](S)CCN1C(=O)N(C)C(C)(C)C1=O)C(C)(C)C (stereo partly drawn) |  | > 100 | > 100 | > 100 | > 100 | > 100 |  |  | > 100 | > 100
CCN(CC)CCNc1ccc2nnn3c4ccc(OC(C)=O)cc4c(=O)c1c23 |  | > 43.2 | 12.3 | 17.4 | 11.5 | 26.3 | 22.2 | 3.2 | 19.1 | > 38.1
O=C(OCc1c(-c2ccccc2)nn(-c2ccccc2)c1COC(=O)Oc1ccccc1)Oc1ccccc1 | > 100 | > 100 |  | > 100 | > 100 | > 100 | > 100 | > 100 | > 100 | > 100
CC1(C)C(C(=O)OC(C#N)c2cccc(OCC(=O)OCc3ccccc3)c2)C1(C)C (stereo not drawn) | > 100 | > 100 | > 100 |  | > 100 | > 100 | > 100 | 76.5 | > 100 | > 100
CCOC(=S)SC/C(=N\OC(C)(C)OC)c1ccccc1 |  | > 100 | 95.8 | 61.8 | > 100 | > 100 | > 100 | 44.5 | > 100 | > 100
O=C1O[C@H](COC(=O)c2ccccc2)[C@@H](OC(=O)c2ccccc2)C=C1OC(=O)c1ccccc1 | > 100 | 35.6 | > 100 | > 100 | 36.6 |  | 35.9 | 41.9 | > 100 | 33.7
